Measured values from patent publication US20240398841A1, “BLADDER PERFUSION PHARMACEUTICAL COMPOSITION, PREPARATION METHOD THEREFOR AND APPLICATION THEREOF” (priority 2020, published 2024).
Several values for one entry are separate records, joined by “and”; a condition that tells them apart may be missing. Identical values can stand only once. Counter-ions that a name gives are not always drawn.

Key:
[1] = test system: bladder in situ tumor (fLuc-MB49 cells); test: Combined perfusion of EPI and R837 hydrochloride in different ratios for bladder in situ tumor, fluorescence imaging and survival (Example B4); format: in vivo, mice; conditions: for Survival rate: 14th day
[2] = 1-9 days, two perfusions; EPI 60 μg, R837 360 μg; compared with blank group
Method: Six mice in each of the four groups were perfused with the same dose of blank ultrapure water (ddH2O), R837 (360 μg), EPI (60 μg) and EPI (60 μg)+R837 (360 μg) for 1 hour, once a week, twice, and the body weight was recorded every other day. […] Next, we used a similar method to evaluate whether there was a usage range for the attenuation effect when EPI and R837 were used in combination in a mass ratio (1:10). Six mice in each of the four groups were perfused with the same dose of blank ultrapure water (ddH2O), R837 (600 μg), EPI (60 μg) and EPI (60 μg)+R837 (600 μg) for 1 hour, and the body weights was recorded every other day.

[3] = test system: MB49 bladder cancer in situ; test: Pirarubicin (THP)/R837 mixed lyophilized powder in bladder perfusion treatment of bladder cancer, tumor mass (Example G2); format: in vivo, mice; conditions: after two bladder perfusions, from tumor mass
Method: Example G2: Application of pirarubicin (THP) used in combination with R837 in the treatment of bladder cancer.
The mice were randomly divided into the following groups:
THP: perfusion of the pirarubicin solution dissolved in 5% glucose solution;
After two times of bladder perfusion treatment, the bladder cancer in the mice was obtained by dissection, and the tumor mass was recorded. […] The Guinness formula q=E(A+B)/(EA+EB−EA*EB) is used to calculate the drug synergy, wherein E(A+B) is the tumor inhibition rate in the compound formulation treatment group, and EA and EB are the tumor inhibition rates when the two components are used respectively.

[4] = General formulation study of simple mixtures of epirubicin and imiquimod (stability, solubility versus pH); format: physicochemical
[5] = test system: bladder in situ tumor (fLuc-MB49 cells); conditions: mouse, in vivo
[6] = test system: bladder cancer; conditions: TMX-101 gel formulation containing R837, bladder perfusion; cited from earlier work
[7] = test system: bladder in situ tumor (fLuc-MB49 cells); test: Combined perfusion of THP and R837 hydrochloride for bladder in situ tumor, in vivo fluorescence imaging and survival (Example B2); parameters: species or system mice; conditions: until 35 days
[8] = test system: MB49 bladder cancer in situ; test: Doxorubicin (ADM)/R848 mixed lyophilized powder in bladder perfusion treatment of bladder tumor, tumor mass (Example G3); format: in vivo, mice; conditions: after two bladder perfusions; compound formulation with hydroxypropyl methylcellulose as penetration enhancer
Method: Example G3: Application of doxorubicin (ADM) used in combination with resiquimod (R848) in the treatment of bladder tumor.
The in-situ models of bladder cancer in mice were established by the same method as in Example G1, the mixed lyophilized powder formulation of doxorubicin and […] was prepared for later use, and the mice were randomly divided into groups (Blank: perfusion of 5% glucose solution: ADM: perfusion of the […] solution dissolved in normal saline: R848: perfusion of the resiquimod suspension dispersed in 5% glucose solution: ADM+R848: perfusion of the mixed lyophilized powder formulation of […] and resiquimod dissolved in 5% glucose solution), wherein hydroxypropyl methylcellulose was added as a penetration enhancer component before the compound formulation was used for bladder perfusion treatment. After two times of the bladder perfusion in each group, the bladder cancer in the mice was obtained by dissection, and the tumor mass was recorded.

[9] = Day 0 (before the first perfusion)

Structure (SMILES) | Survival rate [1] | Mean fluorescence intensity of bladder in situ tumor tissue, group Mean [1, 9] | Mean fluorescence intensity of bladder in situ tumor tissue, group Mean ([1]; Day 7) | Mean fluorescence intensity of bladder in situ tumor tissue, group Mean ([1]; Day 14) | tumor inhibition rate [3] | tumor inhibition rate [8] | also measured
COc1cccc2c1C(=O)c1c(O)c3c(c(O)c1C2=O)C[C@@](O)(C(=O)CO)C[C@@H]3O[C@H]1C[C@H](N)[C@@H](O)[C@H](C)O1 [EPI, epirubicin hydrochloride] | 67% | 1.957 10^5 | 3.893 10^5 | 10.8 10^5 | – | – | Mean fluorescence intensity of bladder in situ tumor tissue (single mice) ([1]; Day 14, listed as B4-3, hydrochloride): 12.8 10^5 and 10.9 10^5 and 8.7 10^5; body weights of the mice [2]: significantly lower
CC(C)Cn1cnc2c(N)nc3ccccc3c21 [Sample R837, imiquimod] | 100% | 1.877 10^5 | 5.922 10^5 | 9.287 10^5 | 38.33% | – | Mean fluorescence intensity of bladder in situ tumor tissue (single mice) ([1]; Day 7, listed as B4-2): 6.37 10^5 and 5.49 10^5 and 5.35 10^5 and 6.92 10^5 and 6.05 10^5; Mean fluorescence intensity of bladder in situ tumor tissue (single mice) ([1]; Day 14, listed as B4-2): 7.97 10^5 and 10.2 10^5 and 9.04 10^5 and 12.7 10^5 and 7.53 10^5 and 8.28 10^5; pH above which imiquimod precipitates from the solution [4]: > 5.0; tumor fluorescence intensity / tumor inhibition effect [5]: no significant tumor inhibition effect; safety in clinical trial [6]: good safety
COc1cccc2c1C(=O)c1c(O)c3c(c(O)c1C2=O)C[C@@](O)(C(=O)CO)C[C@@H]3O[C@H]1C[C@H](N)[C@H](O[C@@H]2CCCCO2)[C@H](C)O1 [THP, pirarubicin hydrochloride] | – | – | – | – | 28.23% | – | Survival rate [7]: 60%
COc1cccc2c1C(=O)c1c(O)c3c(c(O)c1C2=O)C[C@@](O)(C(=O)CO)C[C@@H]3O[C@H]1C[C@H](N)[C@H](O)[C@H](C)O1 [DOX, doxorubicin hydrochloride] | – | – | – | – | – | 8.6% | –
CCOCc1nc2c(N)nc3ccccc3c2n1CC(C)(C)O [Sample R848, resiquimod] | – | – | – | – | – | 21.8% | –
